According to patent US20200131669A1, “CYCLIC PEPTIDE COMPOUND HAVING HIGH MEMBRANE PERMEABILITY, AND LIBRARY CONTAINING SAME” (Chugai Seiyaku Kabushiki Kaisha, priority 2017, published 2020):
Positions of bridges follow the written chain, without caps; N, C: chain ends. Non-standard residues stand in square brackets, D forms with d. Residues, ends and D or L forms follow the SMILES beside them. *: point of attachment. NMeAbu(3,3-F2-piperidino) = CN[C@@H](CCN1CCCC(F)(F)C1)C(=O)O; Phe(4-CF3) = N[C@@H](Cc1ccc(C(F)(F)F)cc1)C(=O)O; NMePhe(3-Cl) = CN[C@@H](Cc1cccc(Cl)c1)C(=O)O; NMeW = CN[C@@H](Cc1c[nH]c2ccccc12)C(=O)O; hNle(7,7-F2) = N[C@@H](CCCCC(F)F)C(=O)O; dNMehPhe = CN[C@H](CCc1ccccc1)C(=O)O; hhPhe = N[C@@H](CCCc1ccccc1)C(=O)O; NMeF = CN[C@@H](Cc1ccccc1)C(=O)O; NMeI = CC[C@H](C)[C@H](NC)C(=O)O; dNMeF = CN[C@H](Cc1ccccc1)C(=O)O; hPhe = N[C@@H](CCc1ccccc1)C(=O)O; Butyl(3-Me,3-OH) = CC(C)(O)CC*; NMeD = CN[C@@H](CC(=O)O)C(=O)O; NMeL = CN[C@@H](CC(C)C)C(=O)O; NMeV = CN[C@H](C(=O)O)C(C)C; NMeA = CN[C@@H](C)C(=O)O; Piperidide = C1CCN(*)CC1; Abu = CC[C@H](N)C(=O)O; NBuGly = CCCCNCC(=O)O; Isopentyl = CC(C)CC*; NPrGly = CCCNCC(=O)O; Sar = CNCC(=O)O; tBu = CC(C)(C)*

Test: Caco-2 membrane permeability, improved method as used in the following Examples (96-well, 20 to 24 h preincubation)
Assay type: in vitro ADME
Conditions: Caco-2, Caco-2 (cm/sec)
Summary of the method: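 Caco-2 monolayers were grown three weeks and preincubated 20–24 h at 37 °C with compound in DMEM+FaSSIF (1% DMSO) apically. The assay then used compound in FaSSIF/HBSS (1% DMSO, pH 6.0) apically and HBSS with 4% BSA (pH 7.4) basally. Basal samples were taken at 180 min for LC/MS, and Papp (cm/sec) was calculated.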

Row | Compound | Papp A→B [nm/s]
1 | CC[C@H](C)[C@H]1C(=O)N[C@@H]([C@@H](C)O)C(=O)N(C)CC(=O)N(C)[C@@H](C)C(=O)N[C@H](C(=O)N2CCCCC2)CC(=O)N(C)[C@@H](C)C(=O)N[C@@H](Cc2ccc(C(F)(F)F)cc2)C(=O)N(C)[C@@H](CC(C)C)C(=O)N(C)[C@@H](Cc2ccccc2)C(=O)N[C@@H](C)C(=O)N(C)[C@@H](CC(C)C)C(=O)N1C [pd131] ([NMeA][Phe(4-CF3)][NMeL][NMeF]A[NMeL][NMeI]T[Sar][NMeA]D-Piperidide; lactam N-11) | 11

Same assay, conditions: human, Caco-2, Caco-2

Row | Compound | Papp A→B at 180 min [nm/s]
2 | CCCCN1CC(=O)N(C)[C@@H](CC(C)C)C(=O)N[C@@H](COC(C)(C)C)C(=O)N(C)[C@@H](Cc2ccccc2)C(=O)N(C)[C@@H](C(C)C)C(=O)N[C@H](C(=O)N2CCCCC2)CC(=O)N[C@H](C)C(=O)N(C)[C@@H](Cc2ccccc2)C(=O)N[C@@H](CC(C)C)C(=O)N(C)[C@@H](CCN2CCCC(F)(F)C2)C(=O)N[C@@H]([C@@H](C)O)C1=O [pd386] ([dA][NMeF]L[NMeAbu(3,3-F2-piperidino)]T[NBuGly][NMeL]S(tBu)[NMeF][NMeV]D-Piperidide; lactam N-11) | 23
3 | CC(C)C[C@H]1C(=O)N[C@H](C(=O)N2CCCCC2)CC(=O)N(C)[C@@H](C)C(=O)N[C@@H](C(C)C)C(=O)N(C)[C@@H](CC(C)C)C(=O)N(C)[C@@H](Cc2ccccc2)C(=O)N[C@@H](C)C(=O)N(C)[C@@H](C)C(=O)N(C)[C@@H](CC(C)C)C(=O)N[C@@H](CCc2ccccc2)C(=O)N(C)CC(=O)N1C [pd318] ([NMeA]V[NMeL][NMeF]A[NMeA][NMeL][hPhe][Sar][NMeL]D-Piperidide; lactam N-11) | 25
4 | CC[C@H](C)[C@@H]1NC(=O)[C@H](Cc2ccccc2)N(C)C(=O)CN(C)C(=O)C[C@@H](C(=O)N2CCCCC2)NC(=O)[C@H](C)N(C)C(=O)[C@H](CCCc2ccccc2)NC(=O)[C@H](CC(C)C)N(C)C(=O)[C@H](Cc2ccccc2)N(C)C(=O)CN(C)C(=O)[C@H]([C@@H](C)O)NC(=O)[C@H](CC(C)C)N(C)C1=O [pd367] ([Sar][NMeF]I[NMeL]T[Sar][NMeF][NMeL][hhPhe][NMeA]D-Piperidide; lactam N-11) | 15
5 | CC[C@@H]1NC(=O)[C@@H](CCc2ccccc2)N(C)C(=O)[C@H](CC(C)C)N(C)C(=O)[C@H](CC(C)C)NC(=O)[C@H](C)N(C)C(=O)C[C@@H](C(=O)N2CCCCC2)NC(=O)[C@H](CC(C)C)N(C)C(=O)CN(C)C(=O)[C@H]([C@@H](C)O)NC(=O)[C@H](CC(C)C)N(C)C(=O)[C@H](Cc2ccccc2)N(C)C1=O [pd322] ([NMeA]L[NMeL][dNMehPhe][Abu][NMeF][NMeL]T[Sar][NMeL]D-Piperidide; lactam N-11) | 31
6 | CC(C)CCOC[C@@H]1NC(=O)[C@H](CC(C)C)N(C)C(=O)CN(C)C(=O)[C@H]([C@@H](C)O)NC(=O)[C@H](CC(C)C)N(C)C(=O)[C@H](COCCC(C)(C)O)NC(=O)[C@H](Cc2ccccc2)N(C)C(=O)[C@@H](C(C)C)NC(=O)C[C@@H](C(=O)N2CCCCC2)NC(=O)[C@H](CC(C)C)N(C)C(=O)[C@H](Cc2ccccc2)N(C)C1=O [pd433] ([dV][NMeF]S(Butyl(3-Me,3-OH))[NMeL]T[Sar][NMeL]S(Isopentyl)[NMeF][NMeL]D-Piperidide; lactam N-11) | 14
7 | CC(C)C[C@H]1C(=O)N[C@@H](COC(C)(C)C)C(=O)N(C)[C@@H](Cc2ccccc2)C(=O)N(C)[C@@H](C(C)C)C(=O)N[C@H](C(=O)N2CCCCC2)CC(=O)N[C@H](C(C)C)C(=O)N(C)[C@@H](Cc2ccccc2)C(=O)N[C@@H](CCCCC(F)F)C(=O)N(C)[C@@H](CC(C)C)C(=O)N[C@@H]([C@@H](C)O)C(=O)N(C)CC(=O)N1C [pd331] ([dV][NMeF][hNle(7,7-F2)][NMeL]T[Sar][NMeL]S(tBu)[NMeF][NMeV]D-Piperidide; lactam N-11) | 21
8 | CC(C)CCOC[C@@H]1NC(=O)[C@H](CC(C)C)N(C)C(=O)CN(C)C(=O)[C@H]([C@@H](C)O)NC(=O)[C@H](CC(C)C)N(C)C(=O)[C@H](CC(C)C)NC(=O)[C@H](Cc2ccccc2)N(C)C(=O)[C@@H](C)NC(=O)C[C@@H](C(=O)N2CCCCC2)NC(=O)[C@H](CC(C)C)N(C)C(=O)[C@@H](Cc2ccccc2)N(C)C1=O [pd300] ([dA][NMeF]L[NMeL]T[Sar][NMeL]S(Isopentyl)[dNMeF][NMeL]D-Piperidide; lactam N-11) | 19

Same assay, conditions: human, Caco-2, Caco-2 (cm/sec)

Row | Compound | Papp A→B at 180 min [nm/s]
9 | CC(C)C[C@H]1C(=O)N[C@@H](COC(C)(C)C)C(=O)N(C)[C@@H](Cc2ccccc2)C(=O)N(C)[C@@H](CC(C)C)C(=O)N(C)[C@H](C(=O)N2CCCCC2)CC(=O)N2CCC[C@H]2C(=O)N(C)[C@@H](Cc2cccc(Cl)c2)C(=O)N[C@@H](C(C)C)C(=O)N(C)[C@@H](C(C)C)C(=O)N[C@@H]([C@@H](C)O)C(=O)N(C)CC(=O)N1C [pd166] (P[NMePhe(3-Cl)]V[NMeV]T[Sar][NMeL]S(tBu)[NMeF][NMeL][NMeD]-Piperidide; lactam N-11) | 32
10 | CC(C)C[C@H]1C(=O)N(C)[C@@H](Cc2ccccc2)C(=O)N[C@@H](COC(C)(C)C)C(=O)N(C)[C@@H](C)C(=O)N[C@H](C(=O)N2CCCCC2)CC(=O)N(C)[C@@H](C)C(=O)N(C)[C@@H](Cc2ccccc2)C(=O)N[C@@H](CCc2ccccc2)C(=O)N(C)[C@@H](CC(C)C)C(=O)N[C@@H]([C@@H](C)O)C(=O)N(C)CC(=O)N1C [pd183] ([NMeA][NMeF][hPhe][NMeL]T[Sar][NMeL][NMeF]S(tBu)[NMeA]D-Piperidide; lactam N-11) | 21
11 | CCCN1CC(=O)N(C)[C@@H](Cc2ccccc2)C(=O)N[C@@H]([C@@H](C)CC)C(=O)N(C)[C@@H](Cc2ccccc2)C(=O)N[C@@H]([C@@H](C)O)C(=O)N(C)CC(=O)N(C)[C@@H](Cc2ccccc2)C(=O)N(C)[C@@H](CC(C)C)C(=O)N[C@@H](COC(C)(C)C)C(=O)N(C)[C@@H](C(C)C)C(=O)N[C@H](C(=O)N2CCCCC2)CC1=O [pd195] ([NPrGly][NMeF]I[NMeF]T[Sar][NMeF][NMeL]S(tBu)[NMeV]D-Piperidide; lactam N-11) | 50
12 | CC[C@H](C)[C@@H]1NC(=O)[C@H](Cc2ccccc2)N(C)C(=O)CN(C)C(=O)C[C@@H](C(=O)N2CCCCC2)NC(=O)[C@H](C(C)C)N(C)C(=O)[C@H](COC(C)(C)C)NC(=O)[C@H](CC(C)C)N(C)C(=O)[C@H](Cc2ccccc2)N(C)C(=O)CN(C)C(=O)[C@H]([C@@H](C)O)NC(=O)[C@H](Cc2ccccc2)N(C)C1=O [pd205] ([Sar][NMeF]I[NMeF]T[Sar][NMeF][NMeL]S(tBu)[NMeV]D-Piperidide; lactam N-11) | 18
13 | CC(C)C[C@@H]1NC(=O)[C@H](Cc2ccccc2)N(C)C(=O)[C@@H]2CCCN2C(=O)C[C@@H](C(=O)N2CCCCC2)NC(=O)[C@H](Cc2ccccc2)N(C)C(=O)[C@H](Cc2ccccc2)N(C)C(=O)[C@H](COC(C)(C)C)NC(=O)[C@H](CC(C)C)N(C)C(=O)CN(C)C(=O)[C@H]([C@@H](C)O)NC(=O)[C@H](CC(C)C)N(C)C1=O [pd203] (P[NMeF]L[NMeL]T[Sar][NMeL]S(tBu)[NMeF][NMeF]D-Piperidide; lactam N-11) | 21
14 | CC(C)C[C@@H]1NC(=O)C[C@@H](C(=O)N2CCCCC2)NC(=O)[C@H](CC(C)C)N(C)C(=O)[C@H](CC(C)C)N(C)C(=O)[C@H](Cc2ccc(C(F)(F)F)cc2)NC(=O)[C@H](CC(C)C)N(C)C(=O)[C@H]([C@@H](C)O)NC(=O)[C@H](CC(C)C)N(C)C(=O)[C@H](C)N(C)C1=O [pd153] (L[NMeA][NMeL]T[NMeL][Phe(4-CF3)][NMeL][NMeL]D-Piperidide; lactam N-9) | 14
15 | CC(C)C[C@@H]1NC(=O)[C@H](CC(C)C)N(C)C(=O)[C@H](C)N(C)C(=O)C[C@@H](C(=O)N(C)[C@@H](Cc2ccccc2)C(=O)N[C@@H](C)C(=O)N2CCCCC2)NC(=O)[C@H]([C@@H](C)O)NC(=O)[C@H](CC(C)C)N(C)C(=O)[C@H](Cc2ccccc2)NC(=O)[C@H](Cc2ccccc2)N(C)C(=O)[C@H](CC(C)C)N(C)C1=O [pd218] ([NMeA][NMeL]L[NMeL][NMeF]F[NMeL]TD[NMeF]A-Piperidide; lactam N-9) | 11
16 | CC(C)C[C@H]1C(=O)N(C)[C@@H](Cc2c[nH]c3ccccc23)C(=O)N(C)[C@@H](Cc2ccccc2)C(=O)N[C@@H]([C@@H](C)O)C(=O)N(C)[C@@H](C)C(=O)N(C)[C@@H](CC(C)C)C(=O)N[C@H](C(=O)N2CCCCC2)CC(=O)N(C)[C@@H](C)C(=O)N(C)[C@@H](CC(C)C)C(=O)N(C)[C@@H](CC(C)C)C(=O)N[C@@H](C)C(=O)N1C [pd104] ([NMeA][NMeL][NMeL]A[NMeL][NMeW][NMeF]T[NMeA][NMeL]D-Piperidide; lactam N-11) | 0.25

Same assay, conditions: human, Caco-2; read-out: Caco-2

Row | Compound | Papp A→B at 180 min [nm/s]
17 | CC[C@H](C)[C@@H]1NC(=O)[C@H](C)N(C)C(=O)C[C@@H](C(=O)N(C)[C@@H](Cc2ccccc2)C(=O)N[C@@H](C)C(=O)N2CCCCC2)NC(=O)[C@H](Cc2ccccc2)N(C)C(=O)CN(C)C(=O)[C@H]([C@@H](C)O)NC(=O)[C@H](C)N(C)C(=O)[C@H](C(C)C)N(C)C(=O)[C@H](Cc2ccccc2)NC(=O)[C@H](CC(C)C)N(C)C(=O)[C@H](CC(C)C)N(C)C1=O [pd222] ([NMeA]I[NMeL][NMeL]F[NMeV][NMeA]T[Sar][NMeF]D[NMeF]A-Piperidide; lactam N-11) | 11
